Experimental data taken from US20250304620A1, “ANTIMICROBIAL PEPTIDE AND APPLICATION THEREOF” (priority 2023, published 2025).
Values after ≈ are worked out from the molar mass of the structure shown. Marks after values point to notes of the source that are not given here. Non-standard residues stand in square brackets, D forms with d. Residues, ends and D or L forms follow the SMILES beside them. PEG2000 = polyethylene glycol 2000, conjugated to the N-terminus; PEG4000 = polyethylene glycol 4000, conjugated to the C-terminus; PEG200 = polyethylene glycol 200, conjugated to the C-terminus; PEG500 = polyethylene glycol 500, conjugated to the C-terminus; Phe(3,4-Cl2) = N[C@@H](Cc1ccc(Cl)c(Cl)c1)C(=O)O; Phe(4-CF3) = N[C@@H](Cc1ccc(C(F)(F)F)cc1)C(=O)O; Phe(3,4-F2) = N[C@@H](Cc1ccc(F)c(F)c1)C(=O)O; Phe(4-Cl) = N[C@@H](Cc1ccc(Cl)cc1)C(=O)O; Phe(4-F) = N[C@@H](Cc1ccc(F)cc1)C(=O)O; 2Nal = N[C@@H](Cc1ccc2ccccc2c1)C(=O)O; PEG1000 = polyethylene glycol 1000

Assays:
[1] = test system: Staphylococcus aureus (NRS 384); test: microbe, parasite or virus in culture; format: cell-based
Text: According to the Standards of Clinical and Laboratory Standards Institute (CLSI) of the USA for antimicrobial drug susceptibility test operation standards, a micronutrient serial twofold dilution method was used to determine minimum inhibitory concentrations (MICs) of all 60 peptides (S/N: LV-1˜LV-60) against Staphylococcus aureus (NRS 384). The experiment was repeated 5 times in parallel. […] An antibacterial drug Levofloxacin and an AMP Cbf-K16 (sequence of Cbf-K16: […]) were used as positive controls to evaluate the antibacterial effect of the antimicrobial peptides on Staphylococcus aureus (NRS 384).

[2] = test system: rabbit red blood cells; format: cell-based; settings: red cells of rabbit, 1 h
Method: Fresh rabbit blood ([…]) was collected and centrifuged at 500 g for 5 min, a supernatant was discarded, and red blood cells were repeatedly washed with phosphate-buffered saline (PBS, 0.01 M, pH 7.4) until the supernatant was clear. The red blood cells (RBCs) were resuspended to 10 mL, and diluted 25-fold with PBS (0.01 M, pH 7.4) to prepare a red blood cell suspension with a concentration of about 2×10^8 RBC/mL. The AMPs were subjected to gradient dilution with normal saline (0.85%, w/v, NaCl) according to a multiple dilution method, final concentrations of the SMPs were 1.95, 3.9, 7.8, 15.6, 31.3, 62.5, 125, 250, 500, 1000, and 2000 μg/mL. 100 μl of polypeptide solution was taken and added to a 96-well plate with 5 replicates for each concentration; 100 μl of rabbit blood with a red blood cell count of about 2×10^8 RBC/mL was then added to each well, the plate was incubated at 37° C. for 1 h, centrifuged at 500 g for 5 min, 100 μl of supernatant was taken and transferred to a new 96-well plate, and an optical density (OD) at a wavelength of 541 nm was measured using a microplate reader. Triton X-100 (10 mg/mL as a starting concentration, two-fold gradient dilution) was used as a positive control group. A hemolysis rate was calculated using the following formula: Hemolysis rate (%)=[(OD541 of experimental group-OD541 of negative control group)/(OD541 of positive control group−OD541 of negative control group)]×100% Specific results of the hemolysis test are shown in Table 6. Minimum hemolytic concentration (MHC): a lowest drug concentration that can cause 10% hemolysis.

[3] = test system: Pseudomonas aeruginosa ATCC 27853; test: Injectable formulations on mice infected with peritonitis; format: in vivo, ICR mice; settings: 5 mg/kg via tail vein, twice a day for 3 days, n = 10
Method: Both female and male ICR mice were used in the test, half of the female and male mice were taken and randomly assigned into groups, with 10 mice in each group, and kept in separate cages. The mice were divided into a blank control group, a negative control group, a positive control Levofloxacin group, and AMPs LV-1 to LV-30 groups. A bacterial suspension of Pseudomonas aeruginosa ATCC 27853 was prepared, a concentration of the suspension was adjusted 1×10^9 CFU/mL for subsequent use. Except for the blank control group, all other mice were injected with the bacterial suspension (0.2 mL, 1×10^9 CFU/mL), into abdominal cavity of the mice, to establish a model. After the model was successfully established, the mice were given drug immediately according to their body weights. Except for the blank control group and the negative control group, the mice in all other groups were administered the corresponding injectable formulations via tail vein, twice a day for 3 consecutive days. The mice were then observed for 14 d. The death of mice in each group was observed, and survival time of the mice was recorded. Results of the effect of the injectable formulations of AMPs LV-1 to LV-30 on the survival time of mice infected with Pseudomonas aeruginosa are shown in Table 10.

[4] = test system: Escherichia coli ATCC 25922; test: Oral formulations on mice with systemic bacterial infection; format: in vivo, ICR mice; settings: 5 mg/kg gavage, three times a day for 7 days, n = 10
Method: Both female and male ICR mice were used in the test, half of the female and male mice were taken and randomly assigned into groups, with 10 mice in each group, and kept in separate cages. The mice were divided into a blank control group, a negative control group, a positive control Levofloxacin group, and AMPs LV-1 to LV-30 groups. An Escherichia coli ATCC 25922 bacterial suspension was prepared, a concentration of the suspension was adjusted 1×10^7 CFU/mL for subsequent use. Except for the blank control group, all other mice were injected with the Escherichia coli suspension (0.2 mL, 1×10^7 CFU/mL), into abdominal cavity of the mice, to establish a model. After the model was successfully established, the mice were given drug immediately according to their body weights. Except for the blank control group and the negative control group, the mice in all other groups were gavaged with different compounds, three times a day for 7 consecutive days. The mice were then observed for 14 d. The death of mice in each group was observed, and survival time of the mice was recorded. Results of the effect of the oral formulations of AMPs LV-1 to LV-30 on the survival time of mice infected with Escherichia coli are shown in Table 11.

[5] = Staphylococcus aureus (NRS 384)

MIC against Staphylococcus aureus (NRS 384) ([1]; NRS 384) [µg/mL]	MIC against Staphylococcus aureus (NRS 384) [1, 5] [µg/mL]	Compound	MHC (minimum hemolytic concentration, lowest concentration causing 10% hemolysis) [2] [µg/mL]	other results
	4	Ac-RKLLXRLKXRK-PEG200 [LV-56] (Ac-RKLL[2Nal]RLK[2Nal]RK-PEG200) [polyethylene glycol 200 conjugated to C-terminal; X=3-(2-naphthyl)-alanine]		
	8	Ac-RKLLXRLKXRK-PEG500 [LV-57] (Ac-RKLL[2Nal]RLK[2Nal]RK-PEG500) [polyethylene glycol 500 conjugated to C-terminal; X=3-(2-naphthyl)-alanine]		
	4	Ac-RKLLXRLKXRK-PEG1000 [LV-58] (Ac-RKLL[2Nal]RLK[2Nal]RK-PEG1000) [polyethylene glycol 1000 conjugated to C-terminal; X=3-(2-naphthyl)-alanine]		
	8	Ac-RKLLXRLKXRK-PEG4000 [LV-60] (Ac-RKLL[2Nal]RLK[2Nal]RK-PEG4000) [polyethylene glycol 4000 conjugated to C-terminal; X=3-(2-naphthyl)-alanine]		
	4	PEG2000-RKLLXRLKXRK-NH2 [LV-59] (PEG2000-RKLL[2Nal]RLK[2Nal]RK-NH2) [polyethylene glycol 2000 conjugated to N-terminal; X=3-(2-naphthyl)-alanine]		

The next lines start with the compound.

Compound	MIC against Staphylococcus aureus (NRS 384) ([1]; NRS 384) [µg/mL]	MIC against Staphylococcus aureus (NRS 384) [1, 5] [µg/mL]	MHC (minimum hemolytic concentration, lowest concentration causing 10% hemolysis) [2] [µg/mL]	other results
CC(=O)N[C@@H](CCCNC(=N)N)C(=O)N[C@@H](CCCNC(=N)N)C(=O)N[C@@H](CC(C)C)C(=O)N[C@@H](CC(C)C)C(=O)N[C@@H](Cc1ccc2ccccc2c1)C(=O)N[C@@H](CCCNC(=N)N)C(=O)N[C@@H](CC(C)C)C(=O)N[C@@H](CCCNC(=N)N)C(=O)N[C@@H](Cc1ccc2ccccc2c1)C(=O)N[C@@H](CCCNC(=N)N)C(=O)N[C@@H](CCCNC(=N)N)C(N)=O [LV-31] (Ac-RRLL[2Nal]RLR[2Nal]RR-NH2)	4 (≈ 2.31 µM)		>1000	
CC(=O)N[C@@H](CCCNC(=N)N)C(=O)N[C@@H](CCCCN)C(=O)N[C@@H](CC(C)C)C(=O)N[C@@H](CC(C)C)C(=O)N[C@@H](Cc1ccccc1)C(=O)N[C@@H](CCCNC(=N)N)C(=O)N[C@@H](CC(C)C)C(=O)N[C@@H](CCCCN)C(=O)N[C@@H](Cc1ccc2ccccc2c1)C(=O)N[C@@H](CCCNC(=N)N)C(=O)N[C@@H](CCCCN)C(N)=O [LV-33] (Ac-RKLLFRLK[2Nal]RK-NH2)	8 (≈ 5.01 µM)		>1000	
CC(=O)N[C@@H](CCCNC(=N)N)C(=O)N[C@@H](CCCCN)C(=O)N[C@@H](CC(C)C)C(=O)N[C@@H](CC(C)C)C(=O)N[C@@H](Cc1ccc2ccccc2c1)C(=O)N[C@@H](CCCNC(=N)N)C(=O)N[C@@H](CC(C)C)C(=O)N[C@@H](CCCCN)C(=O)N[C@@H](Cc1ccccc1)C(=O)N[C@@H](CCCNC(=N)N)C(=O)N[C@@H](CCCCN)C(N)=O [LV-34] (Ac-RKLL[2Nal]RLKFRK-NH2)	4 (≈ 2.51 µM)		>1000	
CC(=O)N[C@@H](CCCNC(=N)N)C(=O)N[C@@H](CCCCN)C(=O)N[C@@H](CC(C)C)C(=O)N[C@@H](CC(C)C)C(=O)N[C@@H](Cc1ccc(F)cc1)C(=O)N[C@@H](CCCCN)C(=O)N[C@@H](CC(C)C)C(=O)N[C@@H](CCCCN)C(=O)N[C@@H](Cc1ccc(F)cc1)C(=O)N[C@@H](CCCCN)C(=O)N[C@@H](CCCNC(=N)N)C(N)=O [LV-35] (Ac-RKLL[Phe(4-F)]KLK[Phe(4-F)]KR-NH2)	8 (≈ 5.15 µM)		>1000	
CC(=O)N[C@@H](CCCNC(=N)N)C(=O)N[C@@H](CCCCN)C(=O)N[C@@H](CC(C)C)C(=O)N[C@@H](CC(C)C)C(=O)N[C@@H](Cc1ccc(F)c(F)c1)C(=O)N[C@@H](CCCCN)C(=O)N[C@@H](CC(C)C)C(=O)N[C@@H](CCCCN)C(=O)N[C@@H](Cc1ccc(F)c(F)c1)C(=O)N[C@@H](CCCCN)C(=O)N[C@@H](CCCNC(=N)N)C(N)=O [LV-36] (Ac-RKLL[Phe(3,4-F2)]KLK[Phe(3,4-F2)]KR-NH2)	4 (≈ 2.52 µM)		>1000	
CC(=O)N[C@@H](CCCNC(=N)N)C(=O)N[C@@H](CCCCN)C(=O)N[C@@H](CC(C)C)C(=O)N[C@@H](CC(C)C)C(=O)N[C@@H](Cc1ccc(Cl)cc1)C(=O)N[C@@H](CCCCN)C(=O)N[C@@H](CC(C)C)C(=O)N[C@@H](CCCCN)C(=O)N[C@@H](Cc1ccc(Cl)cc1)C(=O)N[C@@H](CCCCN)C(=O)N[C@@H](CCCNC(=N)N)C(N)=O [LV-37] (Ac-RKLL[Phe(4-Cl)]KLK[Phe(4-Cl)]KR-NH2)	4 (≈ 2.52 µM)		>1000	
CC(=O)N[C@@H](CCCNC(=N)N)C(=O)N[C@@H](CCCCN)C(=O)N[C@@H](CC(C)C)C(=O)N[C@@H](CC(C)C)C(=O)N[C@@H](Cc1ccc(Cl)c(Cl)c1)C(=O)N[C@@H](CCCCN)C(=O)N[C@@H](CC(C)C)C(=O)N[C@@H](CCCCN)C(=O)N[C@@H](Cc1ccc(Cl)c(Cl)c1)C(=O)N[C@@H](CCCCN)C(=O)N[C@@H](CCCNC(=N)N)C(N)=O [LV-38] (Ac-RKLL[Phe(3,4-Cl2)]KLK[Phe(3,4-Cl2)]KR-NH2)	8 (≈ 4.83 µM)		>1000	
CC(=O)N[C@@H](CCCNC(=N)N)C(=O)N[C@@H](CCCCN)C(=O)N[C@@H](CC(C)C)C(=O)N[C@@H](CC(C)C)C(=O)N[C@@H](Cc1ccc(C(F)(F)F)cc1)C(=O)N[C@@H](CCCCN)C(=O)N[C@@H](CC(C)C)C(=O)N[C@@H](CCCCN)C(=O)N[C@@H](Cc1ccc(C(F)(F)F)cc1)C(=O)N[C@@H](CCCCN)C(=O)N[C@@H](CCCNC(=N)N)C(N)=O [LV-39] (Ac-RKLL[Phe(4-CF3)]KLK[Phe(4-CF3)]KR-NH2)	8 (≈ 4.84 µM)		>1000	
C[C@H]1COc2c(N3CCN(C)CC3)c(F)cc3c(=O)c(C(=O)O)cn1c23 [Levofloxacin, reference compound]				MIC ([1]; Staphylococcus aureus (NRS 384), read-out: MIC against Staphylococcus aureus (NRS 384)): 1 µg/mL (≈ 2.77 µM); Number of mice that died on each day after infection: day 1 [3]: 3 Mouse; Number of mice that died on each day after infection: day 2 [3]: 1 Mouse; Number of mice that died on each day after infection: day 3 [3]: 1 Mouse; Number of mice that died on each day after infection: day 4 [3]: 1 Mouse; Number of mice that died on each day after infection: day 5 [3]: 1 Mouse; Average survival times (Days) ([3]; observed for 14 d): 5.9* Days; Number of mice that died on each day after infection: day 4 [4]: 2 Mouse; Number of mice that died on each day after infection: day 5 [4]: 2 Mouse; Number of mice that died on each day after infection: day 6 [4]: 1 Mouse; Number of mice that died on each day after infection: day 7 [4]: 1 Mouse; Number of mice that died on each day after infection: day 8 [4]: 1 Mouse; Average survival times (Days) ([4]; observed for 14 d): 8.1* Days
